Where “and” joins values, the source holds several entries; their conditions need not be identical. Equal values may be shown once.
Experiments:
[1] = system: previously treated B-cell malignancies (CLL/SLL, WM, MCL, MZL); assay: Phase 2 (NCT04116437): investigator-assessed efficacy (ORR, DCR, DOR, PFS, OS); type: in vivo, human; details: for Months to BOR, median: patients who responded
Experimental: PFS and patient-reported outcomes were assessed as secondary efficacy endpoints.
The study's secondary endpoints were: • ORR, defined as the proportion of patients achieving a best overall response (BOR) of CR, CRi, nodular partial response, partial response (PR), or partial response with lymphocytosis (PR-L) in patients with CLL; CR or PR in patients with SLL, MCL, or MZL; and CR, very good partial response, PR, or minor response (MR) in patients with WM before initiation of subsequent antineoplastic therapy. • DCR, defined as the proportion of patients who attain a BOR of stable disease or better before initiation of subsequent antineoplastic therapy. • Duration of response (DOR), defined as time from […] to date of first documented disease progression or death, whichever occurs first. • PFS, defined as time from first dose date to date of first documented disease progression or death, whichever occurs first. • Time to first response, defined as time from first dose to date of first qualifying response. For example, for a patient who attained a PR-L followed by PR for subsequent assessments, time to first response was the time from first dose to date of first PR-L. • Time to BOR, defined as time from first dose to date of best of overall response.
A patient's BOR was the best response recorded throughout the study prior to initiation of any new anticancer therapy and data cutoff. In some cases, the BOR could only be stable disease (e.g., if the patient was in CR at study entry) because patients were not required to progress prior to entering the study. • ORR was the proportion of patients who attained a BOR of: • PR-L or better (CR, CRi, nodular partial response, PR, PR-L) in patients with CLL; • PR or better (CR, PR) in patients with SLL, MCL, and MZL; • MR or better (CR, very good partial response, PR, MR) in patients with WM.
Per the Safety Analysis Set, patients without postbaseline disease assessment were considered non-responders. DCR was summarized with 95% exact confidence intervals. A sensitivity analysis of DCR was conducted in patients in the Efficacy Evaluable Set; patients who died or discontinued study prior to their first disease assessment due to adverse events were classified as not achieving disease control. An additional sensitivity analysis of DCR excluded patients with low disease burden, as defined above.
The PFS distribution and its related metrics such as median PFS and landmark rates were estimated using the Kaplan-Meier method with censoring rules as defined in Table 29.
Zanubrutinib capsules were taken orally with water and with or without food. Imaging and laboratory assessments at study entry were considered baseline for response assessment; patients were not required to meet criteria for initiation of treatment at study entry.

panel of 370 kinases = assay: Kinome profiling at 100xIC50 (BTK) concentrations; type: biochemical; details: 100×IC50 (BTK) concentration
[2] = Cohort 1 (prior ibrutinib), n = 57
[3] = Cohort 2 (prior acalabrutinib + ibrutinib), n = 7
[4] = Efficacy Evaluable Set, 68 patients

In the case of `C=CC(=O)N1CCC([C@@H]2CCNc3c(C(N)=O)c(-c4ccc(Oc5ccccc5)cc4)nn32)CC1` [zanubrutinib, (S)-7-(1-acryloylpiperidin-4-yl)-2-(4-phenoxyphenyl)-4,5,6,7-tetrahydropyrazolo[1,5-a]pyrimidine-3-carboxamide], the DCR ([1]; 160 mg bid group) is reported as 95.0%, the ORR ([1]; 160 mg bid group) is reported as 70.0% and the DCR ([1]; 320 mg qd group) is reported as 91.7%. The ORR ([1]; 320 mg qd group) was 54.2%, the “BOR PD” value ([1]; Cohort 1) was 1 (1.8) n (%) and the “BOR PR-L or better” value ([1]; Cohort 1) was 36 (63.2) n (%). The “BOR SD” value ([1]; Cohort 1) was 18 (31.6) n (%), the “Months to first OR, median” value ([1]; Cohort 1) was 2.92 months and the “DCR (SD or better)” value [1, 2] was “(94.7, 85.4-98.9) %”. The “ORR (better than SD)” value [1, 2] was “(63.2, 49.3-75.6) %”, the “Months to BOR, median” value ([1]; Cohort 1) was 5.5 months and the “BOR PD” value ([1]; Cohort 2) was 1 (14.3) n (%). The “BOR PR-L or better” value ([1]; Cohort 2) was 5 (71.4) n (%), the “BOR SD” value ([1]; Cohort 2) was 1 (14.3) n (%) and the “Months to first OR, median” value ([1]; Cohort 2) was 3.02 months. The “DCR (SD or better)” value [1, 3] was “(85.7, 42.1-99.6) %”, the “ORR (better than SD)” value [1, 3] was “(71.4, 29.0-96.3) %” and the “Months to BOR, median” value ([1]; Cohort 2) was 7.9 months. The “BOR better than stable disease (ORR)” value [1, 4] was 67.6%, the “BOR of PR” value [1, 4] was 66.2% and the “BOR of stable disease or better (DCR)” value [1, 4] was 95.6%. The “BOR PD” value ([1]; Total) was 3.1 n (%) and 2 (3.1) n (%), the “BOR PR-L or better” value ([1]; Total) was 41 (64.1) n (%) and the “BOR SD” value ([1]; Total) was 29.7 n (%) and 19 (29.7) n (%). The “Months to first OR, median” value ([1]; Total) was 2.96 months, the “Months to BOR, median” value ([1]; Total) was 5.6 months and the “Median DOR” value ([1]; additional analysis) was “not reached”. The “Median PFS” value ([1]; additional analysis) was “not reached”, the “18-month event-free PFS rate” value ([1]; additional analysis, 67 patients) was 83.8% and the “Chance of being alive after 24 months” value ([1]; all patients) was 89.3%. The “Estimated probability of responding for at least 12 months” value ([1]; all patients) was 91.8%, the “Median DOR” value ([1]; all patients) was “not reached” and the ORR ([1]; excluding eight patients ineligible for PR due to low baseline disease burden) was 73.2%. For the same compound, the “12-month event-free DOR rate” value ([1]; in vivo) was 95.0%, the “Median time to first response (better than SD)” value ([1]; in vivo) was 3.0 months and the “Median PFS” value ([1]; overall) was “not reached”. The “PFS event-free rate at 18 months” value ([1]; overall (clinical study report cut-off)) was 80.4%, the “Estimated probability of responding for at least 12 months” value ([1]; patients with WM) was 100% and the “PFS event-free rate at 18 months” value ([1]; patients with WM) was 100%. For the same compound, the “BOR better than stable disease” value ([1]; patients with WM, 11 patients) was 90.9%, the “BOR of stable disease or better” value ([1]; patients with WM, 11 patients) was 100% and the “Very good partial response” value ([1]; patients with WM, 11 patients) was 45.5%. For the same compound, the Off-target kinases inhibited (panel of 370 kinases) was “seven”.
